Among the data in patent EP0654042B1, “AMYLIN MUTEINS” (PFIZER INC., priority 1992, dated 1998) are insulin-stimulated glycogen synthesis and suppress insulin action values, retold here.

Bridge positions count the residues as written; N and C are the ends. Ends that are not written are not given here.

The test system of experiment [1] is isolated soleus muscle. To be noted: Leighton et al. 1988, Cooper et al. 1988; cited from earlier work.
The test system of experiment [2] is muscle or muscle cells. Nature of the experiment: suppression of insulin action (insulin action suppressing activity). To be noted: qualitative statement; no data or test conditions printed. From the text: The phrase "insulin action suppressing activity", as used throughout this Specification and the appendant claims, includes, but is not limited to, the ability of a polypeptide of this invention to suppress the effect which insulin has upon muscle or muscle cells. By way of example and not of limitation, the polypeptides of this invention suppress insulin-stimulated glycogen synthesis in muscle or muscle cells.

With “amylin: 37 amino acid polypeptide with a disulfide bond between Cys 2 and 7; secretory product of pancreatic β cells (KCNTATCATQRLANFLVHSSNNFGAILSSTNVGSNTY; disulfide 2-7; not fully specified (C-terminus); UniProt P10997 34-70, looked up)”, in experiment [1], the insulin-stimulated glycogen synthesis entry was “suppresses insulin-stimulated glycogen synthesis”.

As for “Bolton-Hunter derivative of amylin: Bolton-Hunter derivative of amylin of the drawn formula wherein W is SEQUENCE ID NO:1 (KCNTATCATQRLANFLVHSSNNFGAILSSTNVGSNTY; not fully specified (C-terminus, bridges); cysteine pairing not given here; also: Bolton-Hunter reagent derivative, attachment site not given here; UniProt P10997 34-70, looked up)”, the suppress insulin action result in experiment [2] is “will not suppress insulin action”.
